ChEMBL document CHEMBL3232769, “Design and synthesis of conformationally restricted inhibitors of active thrombin activatable fibrinolysis inhibitor (TAFIa)” (Bioorg Med Chem, 2014)

Key:
Carboxypeptidase B2 [1] = target: T1, Carboxypeptidase B2 (Homo sapiens, UniProt Q96IY4); assay: Inhibition of human TAF1a
T1 sequence (Q96IY4 whole entry): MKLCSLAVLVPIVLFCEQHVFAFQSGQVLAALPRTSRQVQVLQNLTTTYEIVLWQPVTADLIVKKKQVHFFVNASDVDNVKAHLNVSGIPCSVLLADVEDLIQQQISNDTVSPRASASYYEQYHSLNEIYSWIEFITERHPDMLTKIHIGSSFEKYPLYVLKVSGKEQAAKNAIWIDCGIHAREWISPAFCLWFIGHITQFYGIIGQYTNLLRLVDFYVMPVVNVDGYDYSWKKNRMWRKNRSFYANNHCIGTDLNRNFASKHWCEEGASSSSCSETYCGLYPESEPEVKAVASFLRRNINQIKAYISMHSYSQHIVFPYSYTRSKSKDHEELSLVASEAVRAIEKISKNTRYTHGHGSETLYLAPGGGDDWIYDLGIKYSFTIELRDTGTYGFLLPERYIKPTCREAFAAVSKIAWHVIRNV

[2] = target: T2, Carboxypeptidase N catalytic chain (Homo sapiens, UniProt P15169); assay: Inhibition of carboxypeptidase N (unknown origin)
T2 sequence (P15169 whole entry): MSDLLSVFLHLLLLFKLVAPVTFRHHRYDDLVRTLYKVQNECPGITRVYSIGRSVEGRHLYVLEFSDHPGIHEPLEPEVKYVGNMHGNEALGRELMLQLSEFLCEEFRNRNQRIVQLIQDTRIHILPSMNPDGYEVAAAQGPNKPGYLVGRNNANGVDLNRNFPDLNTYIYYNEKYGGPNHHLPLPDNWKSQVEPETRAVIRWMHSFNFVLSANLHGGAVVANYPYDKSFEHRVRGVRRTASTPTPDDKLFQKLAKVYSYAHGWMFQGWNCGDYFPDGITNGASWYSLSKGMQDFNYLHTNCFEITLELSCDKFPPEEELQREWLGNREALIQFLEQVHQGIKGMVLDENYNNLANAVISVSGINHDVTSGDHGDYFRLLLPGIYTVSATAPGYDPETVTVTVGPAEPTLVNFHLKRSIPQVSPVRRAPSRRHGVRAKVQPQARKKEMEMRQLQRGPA

Carboxypeptidase B2 [3] = target: T1, Carboxypeptidase B2; assay: Inhibition of […] in human plasma assessed as clot lysis
[4] = Oral bioavailability in rat; assay type: ADME, organism-based; settings: in vivo
[5] = Lipophilicity, log D of the compound at pH 7.4; settings: buffer
[6] = Oral bioavailability in rat at 20 umol/kg; assay type: ADME, organism-based; settings: in vivo
[7] = Clearance in rat; assay type: ADME, organism-based; settings: in vivo
[8] = Tmax in rat; assay type: ADME, organism-based; settings: in vivo
[9] = Oral bioavailability in rat at 6.8 umol/kg; assay type: ADME, organism-based; settings: in vivo
Carboxypeptidase B2 [10] = target: T1, Carboxypeptidase B2; assay: Inhibition of human […] using hippuryl-L-arginine/hippuryl-L-lysine as substrate by liquid chromatographic analysis
[11] = Clearance in dog; assay type: ADME, organism-based, Canis lupus familiaris; settings: in vivo
[12] = target: Phosphodiesterase 4 (Homo sapiens) (UniProt P27815+Q08499+Q07343+Q08493); assay: Inhibition of PDE4 (unknown origin) at 10 uM; assay type: protein assay

| Structure (SMILES) | IC50 (Carboxypeptidase B2 [1]) [µM] | IC50 [2] [µM] | IC50 (Carboxypeptidase B2 [3]) [µM] | bioavailability [4] [%] | logD [5] | bioavailability [6] [%] | clearance [7] [mL/min/kg] | Tmax [8] [min] | bioavailability [9] [%] | IC50 (Carboxypeptidase B2 [10]) [µM] | clearance [11] [mL/min/kg] | inhibition [12] [%] |
| --- | --- | --- | --- | --- | --- | --- | --- | --- | --- | --- | --- | --- |
| CCCn1cnc(C[C@H](CCCN)C(=O)O)c1 [UK-396,082] |  |  | 5 |  |  | 8 | 2 | 60 |  | 0.45 |  |  |
| C[C@@H](S)[C@@H](Cc1ccc(N)nc1)C(=O)O |  |  | 0.4 | 75 |  |  | 27 | 30 |  | 0.087 |  |  |
| Cl.NCCC[C@@]1(C(=O)O)CCn2c(-c3cccc(-c4ccc(Cl)cc4Cl)c3)cnc2C1 | < 0.041 | > 1000 | 3.2 | 0.9 | 2.4 |  |  |  |  |  |  |  |
| NCCCC1(C(=O)O)CCc2c(ncn2CCC2CCC(C3CCCCC3)CC2)C1 (racemic) | 0.124 | > 1000 | 16 |  | 3.6 |  |  |  |  |  |  |  |
| CCCn1cnc(CC(NCCN)C(=O)O)c1 (stereo not drawn) |  |  | 8 |  |  |  |  |  |  | 0.62 |  |  |

More lines, now with the values ahead:

| IC50 (Carboxypeptidase B2 [1]) [µM] | IC50 [2] [µM] | IC50 (Carboxypeptidase B2 [3]) [µM] | bioavailability [4] [%] | logD [5] | bioavailability [6] [%] | clearance [7] [mL/min/kg] | Tmax [8] [min] | bioavailability [9] [%] | IC50 (Carboxypeptidase B2 [10]) [µM] | clearance [11] [mL/min/kg] | inhibition [12] [%] | Structure (SMILES) |
| --- | --- | --- | --- | --- | --- | --- | --- | --- | --- | --- | --- | --- |
| 0.585 | > 1000 | 7.1 |  |  |  |  |  |  |  |  |  | NCCCC1(C(=O)O)CCc2c(ncn2-c2ccccc2)C1 (racemic) |
| < 0.041 | > 1000 | 0.1 | 1.4 | < 0 |  |  |  |  |  |  |  | CC(C)CCn1cnc2c1CC[C@@](CCCN)(C(=O)O)C2.Cl |
|  | > 1000 |  |  | < 0 | 2 | 6 | 12 | 8 |  |  |  | CCCn1cnc2c1CC[C@@](CCCN)(C(=O)O)C2 |
| 2.27 | > 1000 | > 100 |  |  |  |  |  |  |  |  |  | CCc1cnc2n1CCC(CCCN)(C(=O)O)C2 (racemic) |
| 0.106 | > 1000 | 2.5 | 1.7 | 1 |  |  |  |  |  |  |  | NCCC[C@@]1(C(=O)O)CCc2c(ncn2Cc2cccc(-c3ccccc3)c2)C1 |
| 0.117 | > 1000 | 0.08 | 1.4 | < 0 |  | 6.2 |  |  |  | 3.5 | 79 | NCCC[C@@]1(C(=O)O)CCc2c(ncn2C2CCCCC2)C1 |
| 0.066 | > 1000 | 1.3 | 4.9 | < 0 |  | 12 |  |  |  |  | 79 | NCCC[C@@]1(C(=O)O)CCn2c(-c3ccccc3)cnc2C1 |
